Assay results as given in article PMC4552634, “A New Set of Chemical Starting Points with Plasmodium falciparum Transmission-Blocking Potential for Antimalarial Drug Discovery” (PLoS ONE, 2015).
Read-outs that look alike come from different tables or passages of the source.

Columns and labels:
[1] = tested on: HepG2 cells; assay: Cytotoxicity in HepG2 cells (intracellular ATP, ATPlite, 48 h); format: cell-based, human; conditions: HepG2 cells; IC50 per ratio column head; unit inferred
Procedure: Cells were grown and maintained in EMEM (Sigma-Aldrich) supplemented with 2mM L-glutamine (Sigma-Aldrich) and 10% fetal calf serum (Perbio). […] Passages were routinely made upon reaching 80–90% confluence. For cytotoxicity experiments, cells were seeded onto 96-well clear bottom black plates coated with type I collagen (Biocoat, Becton Dickinson) at a cell density of 20,000 cells/well.
To determine cytotoxic effects, represented by the Tox50 value (the concentration of drug that reduces cell viability by 50%), cells were exposed to serial dilutions of compounds for 48 h at 37°C. The assay medium was as previously described, but supplemented with 5% fetal calf serum instead of 10%. […] In the presence of ATP, luminescence is emitted as the reaction described earlier for the BacTiter-Glo kit. Percentages of inhibition were calculated relative to vehicle control wells.

[2] = tested on: P. falciparum asexual stages; conditions: asexual stages; TCAMS data; read-out: IC50 asexual; cited from earlier work
[3] = tested on: P. falciparum stage V gametocytes; assay: Gametocytocidal ATP bioluminescence assay (single point 5 μM and 1 μM, dose-response); format: cell-based, Plasmodium falciparum; conditions: for Ratio IC50 HepG2/IC50 P. falciparum: IC50 HepG2 divided by IC50 P. falciparum gametocytes
Procedure: Purified stage IV-V gametocytes were obtained as previously described [10]. Single point ATP bioluminescence assay and dose–response of positive hits was determined in accordance with the previously published protocol [10].

[4] = P. falciparum gametocytes, average, read-out: IC50 Pf Gametocytes average, IC50 (µM) average
[5] = sexual stages (gametocytes), dose-response, read-out: IC50 sexual

CCn1c(-c2nonc2N)nc2c(-c3cc4ccccc4s3)ncc(C(=O)N3CCC(N)C3)c21 (centres unmarked) [TCMDC-135281]
IC50 [1]: 3500 nM | IC50 [2]: 871 nM | Ratio IC50 HepG2/IC50 P. falciparum [3]: 10 | IC50 [3, 4]: 0.35 µM

Cc1oc(-c2ccc(Cl)cc2)cc1C(=O)NCCC1CCN(CCCCCNC(=O)/C=C/c2ccc(Cl)c(Cl)c2)CC1 [TCMDC-140009]
IC50 [1]: 4100 nM | IC50 [2]: 446 nM | Ratio IC50 HepG2/IC50 P. falciparum [3]: 0.755 | IC50 [3, 4]: 5.43 µM

CSc1ccc2ccccc2c1CCNCCCCNCCc1c(SC)ccc2ccccc12 [TCMDC-137763]
IC50 [1]: 1650 nM | IC50 [2]: 408 nM | Ratio IC50 HepG2/IC50 P. falciparum [3]: 7 | IC50 [3, 4]: 0.23 µM

CC(C)CNCc1cccc(-c2ccccc2CN(C(=O)NCCc2ccccc2)C2CCN(Cc3ccccc3)CC2)c1 [TCMDC-140608]
IC50 [1]: 6600 nM | IC50 [2]: 1170 nM | Ratio IC50 HepG2/IC50 P. falciparum [3]: <1 | IC50 [3, 4]: > 10 µM

FC(F)(F)COc1c(CCNCCCCNCCc2ccc3ccccc3c2OCC(F)(F)F)ccc2ccccc12 [TCMDC-137169]
IC50 [1]: 2800 nM | IC50 [2]: 348 nM | Ratio IC50 HepG2/IC50 P. falciparum [3]: 28 | IC50 [3, 4]: 0.1 µM

CC(C)(C)c1ccc(-c2nc3c(ccc4nc(N)nc(N)c43)[nH]2)cc1 [TCMDC-137984]
IC50 [1]: 3850 nM | IC50 [2]: 158 nM | Ratio IC50 HepG2/IC50 P. falciparum [3]: 19 | IC50 [3, 4]: 0.21 µM | IC50 [3, 5]: 0.205 µM

CCn1c(-c2nonc2N)nc2c(-c3cccc(NC(=O)Nc4cccc(C#N)c4)c3)ncc(OCCCN)c21 [TCMDC-136195]
IC50 [1]: 24700 nM | IC50 [2]: 669 nM | Ratio IC50 HepG2/IC50 P. falciparum [3]: 7 | IC50 [3, 4]: 3.51 µM | IC50 [3, 5]: 3.52 µM

C#CCCOc1ccc2ccccc2c1CNCCCCCCNCc1c(OCCC#C)ccc2ccccc12 [TCMDC-137832]
IC50 [1]: 5500 nM | IC50 [2]: 811 nM | Ratio IC50 HepG2/IC50 P. falciparum [3]: 14 | IC50 [3, 4]: 0.41 µM | IC50 [3, 5]: 0.405 µM

CCN(Cc1ccc(-c2ccc(C(F)(F)F)cc2)cc1)C(=O)Cn1c(SCc2cccc(F)c2F)cc(=O)c2cc(CN3CCCCC3)ccc21 [TCMDC-141592]
IC50 [1]: 4200 nM | IC50 [2]: 801 nM | Ratio IC50 HepG2/IC50 P. falciparum [3]: 1.8 | IC50 [3, 4]: 2.34 µM | IC50 [3, 5]: 2.33 µM

CC(=O)N(Cc1ccc(CC(C)NCCc2cccc(Cl)c2)cc1)Cc1ccc(CC(C)NCCc2cccc(Cl)c2)cc1 (centres unmarked) [TCMDC-139678]
IC50 [1]: 2300 nM | IC50 [2]: 783 nM | Ratio IC50 HepG2/IC50 P. falciparum [3]: 1.64 | IC50 [3, 4]: 1.4 µM

CCN(CC)/C(=N/C(=N)Nc1ccc(Cl)c(Cl)c1)NCCCCCCN/C(=N\C(=N)Nc1ccc(Cl)c(Cl)c1)N(CC)CC [TCMDC-131808]
IC50 [1]: > 25000 nM | IC50 [2]: 761 nM | Ratio IC50 HepG2/IC50 P. falciparum [3]: >7 | IC50 [3, 4]: 3.44 µM | IC50 [3, 5]: 3.44 µM

O=C(C1CC1c1ccccc1)N(Cc1ccc(-c2ccc(CNCCc3ccccc3)cc2)cc1)C1CCNCC1 (centres unmarked) [TCMDC-141443]
IC50 [1]: 6700 nM | IC50 [2]: 1110 nM | Ratio IC50 HepG2/IC50 P. falciparum [3]: 17 | IC50 [3, 4]: 0.39 µM | IC50 [3, 5]: 0.385 µM

O=C(NCCc1ccccc1)N(Cc1cccc(-c2ccc(CNC3CCCC3)cc2)c1)C1CCN(Cc2ccccc2)CC1 [TCMDC-140618]
IC50 [1]: 7420 nM | IC50 [2]: 404 nM | Ratio IC50 HepG2/IC50 P. falciparum [3]: 5.66 | IC50 [3, 4]: 1.31 µM

CN1CCN(CCCN(Cc2cccc(-c3cccc(CNC4CCCC4)c3)c2)C(=O)/C=C/c2ccccc2)CC1 [TCMDC-140543]
IC50 [1]: 7170 nM | IC50 [2]: 777 nM | Ratio IC50 HepG2/IC50 P. falciparum [3]: 9 | IC50 [3, 4]: 0.8 µM | IC50 [3, 5]: 0.805 µM

COc1ccccc1CCNc1nc(C)cc(N[C@@H](Cc2ccccc2)C(=O)NCCOc2ccccc2)n1 [TCMDC-134862]
IC50 [1]: 11100 nM | IC50 [2]: 1210 nM | Ratio IC50 HepG2/IC50 P. falciparum [3]: <1 | IC50 [3, 4]: > 10 µM

CN(CCCCN)Cc1ccc(-c2ccc(Cl)cc2)cc1 [TCMDC-140123]
IC50 [1]: 3990 nM | IC50 [2]: 882 nM | Ratio IC50 HepG2/IC50 P. falciparum [3]: 10 | IC50 [3, 4]: 0.41 µM | IC50 [3, 5]: 0.413 µM

CCCCCCOc1ccc2ccccc2c1CNCCCCCCNCc1c(OCCCCCC)ccc2ccccc12 [TCMDC-137963]
IC50 [1]: 3300 nM | IC50 [2]: 1060 nM | Ratio IC50 HepG2/IC50 P. falciparum [3]: 7 | IC50 [3, 4]: 0.48 µM

CCCCOc1cc(OC)c2ccccc2c1CCNCCCCNCCc1c(OCCCC)cc(OC)c2ccccc12 [TCMDC-137845]
IC50 [1]: 3000 nM | IC50 [2]: 1050 nM | Ratio IC50 HepG2/IC50 P. falciparum [3]: 6 | IC50 [3, 4]: 0.5 µM

CCOc1ccccc1CCNC(C)Cc1ccc(C(=O)Nc2ccc(CC(C)NCCc3cccc(Cl)c3)cc2)cc1 (centres unmarked) [TCMDC-139805]
IC50 [1]: 3500 nM | IC50 [2]: 539 nM | Ratio IC50 HepG2/IC50 P. falciparum [3]: 5.71 | IC50 [3, 4]: 0.61 µM | IC50 [3, 5]: 0.613 µM

CC(C)(C)c1ccc(-c2cc3c(ccc4nc(N)nc(N)c43)[nH]2)cc1 [TCMDC-137977]
IC50 [1]: 3260 nM | IC50 [2]: 113 nM | Ratio IC50 HepG2/IC50 P. falciparum [3]: 6 | IC50 [3, 4]: 0.55 µM

FC(F)(F)COc1ccc2ccccc2c1CCNCCCCNCCc1c(OCC(F)(F)F)ccc2ccccc12 [TCMDC-137317]
IC50 [1]: 3300 nM | IC50 [2]: 426 nM | Ratio IC50 HepG2/IC50 P. falciparum [3]: 2.41 | IC50 [3, 4]: 1.37 µM

COc1ccc(C[C@H]2NC[C@H](O)[C@H]2OC(C)=O)cc1 [TCMDC-125504]
IC50 [1]: 190 nM | IC50 [2]: 138 nM | Ratio IC50 HepG2/IC50 P. falciparum [3]: 1.1 | IC50 [3, 4]: 0.17 µM | IC50 [3, 5]: 0.173 µM

CCCCOc1c(CCNCCCCNCCc2cc(OC)c3ccccc3c2OCCCC)cc(OC)c2ccccc12 [TCMDC-137848]
IC50 [1]: 3100 nM | IC50 [2]: 925 nM | Ratio IC50 HepG2/IC50 P. falciparum [3]: 39 | IC50 [3, 4]: 0.08 µM

c1ccc2c(CNCCCN3CCN(CCCNCc4c5ccccc5cc5ccccc45)CC3)c3ccccc3cc2c1 [TCMDC-137909]
IC50 [1]: 6280 nM | IC50 [2]: 182 nM | Ratio IC50 HepG2/IC50 P. falciparum [3]: 60 | IC50 [3, 4]: 0.11 µM | IC50 [3, 5]: 0.105 µM

CN(C)CCN(Cc1ccccc1-c1ccc(CNCCc2ccccc2)cc1)C(=O)c1ccccc1 [TCMDC-140532]
IC50 [1]: 7540 nM | IC50 [2]: 1700 nM | Ratio IC50 HepG2/IC50 P. falciparum [3]: 10 | IC50 [3, 4]: 0.78 µM

CCCCCOc1ccc(C(O)C(CCC(CN2CCCCCC2)C(O)c2ccc(OCCCCC)cc2)CN2CCCCCC2)cc1 (centres unmarked) [TCMDC-124174]
IC50 [1]: 6800 nM | IC50 [2]: 768 nM | Ratio IC50 HepG2/IC50 P. falciparum [3]: 5.67 | IC50 [3, 4]: 1.2 µM

CCn1c(-c2nonc2N)nc2c(-c3cccc(NC(=O)Nc4cccc(Cl)c4)c3)ncc(OCCCN)c21 [TCMDC-136193]
IC50 [1]: 14500 nM | IC50 [2]: 941 nM | Ratio IC50 HepG2/IC50 P. falciparum [3]: 7 | IC50 [3, 4]: 2.17 µM | IC50 [3, 5]: 2.17 µM

C=CCC1OC(=O)c2cc(OC)cc(OC)c21 (centres unmarked) [TCMDC-138677]
IC50 [1]: < 1560 nM | IC50 [2]: 343 nM | Ratio IC50 HepG2/IC50 P. falciparum [3]: <2.6 | IC50 [3, 4]: 0.6 µM

O=S(=O)(NCCN1CCCC1)c1cccc(-c2ccc(CNC3Cc4ccccc4C3)cc2)c1 [TCMDC-132241]
IC50 [1]: 8000 nM | IC50 [2]: 660 nM | Ratio IC50 HepG2/IC50 P. falciparum [3]: 3.72 | IC50 [3, 4]: 2.15 µM

CC(C)CNCc1ccc(-c2cccc(CN(C(=O)NC3CCCCC3)C3CCN(Cc4ccccc4)CC3)c2)cc1 [TCMDC-140628]
IC50 [1]: 1810 nM | IC50 [2]: 805 nM | Ratio IC50 HepG2/IC50 P. falciparum [3]: 1.09 | IC50 [3, 4]: 1.66 µM

CC(Cc1ccc(CNC(=O)NCc2ccc(CC(C)NCCc3cccc(Cl)c3)cc2)cc1)NCCc1cccc(Cl)c1 (centres unmarked) [TCMDC-139648]
IC50 [1]: 4180 nM | IC50 [2]: 685 nM | Ratio IC50 HepG2/IC50 P. falciparum [3]: 7 | IC50 [3, 4]: 0.61 µM

COc1cc2ccccc2c(OC)c1CNCCCCCCNCc1c(OC)cc2ccccc2c1OC [TCMDC-137843]
IC50 [1]: 4250 nM | IC50 [2]: 988 nM | Ratio IC50 HepG2/IC50 P. falciparum [3]: 13 | IC50 [3, 4]: 0.32 µM | IC50 [3, 5]: 0.319 µM

COc1ccccc1CCNc1nc(C)cc(N[C@@H](Cc2ccccc2)C(=O)NCc2cccc(F)c2)n1 [TCMDC-134893]
IC50 [1]: 6300 nM | IC50 [2]: 867 nM | Ratio IC50 HepG2/IC50 P. falciparum [3]: 1.19 | IC50 [3, 4]: 5.3 µM

Oc1c(CN2CCC(Cc3ccccc3)CC2)cc(Cl)c2cccnc12 [TCMDC-124594]
IC50 [1]: 9600 nM | IC50 [2]: 881 nM | Ratio IC50 HepG2/IC50 P. falciparum [3]: 16 | IC50 [3, 4]: 0.6 µM
